Assays:
[1] = test system: calcineurin-NFAT signaling; assay: Flag-NFATc1 localization by immunofluorescence in 293T cells; assay type: cell-based; conditions: 10 μM, 293T cells with overexpressed DYRK1A, ionomycin 5 μM
Excerpt: Flag-NFATc1 remained predominantly in the cytosol when expressed in 293T cells (Mock, Fig. 5A). Upon the addition of the calcium ionophore ionomycin (IM), Flag-NFATc1 was translocated into the nucleus (Fig. 5A, IM) as a result of NFATc1 dephosphorylation by activated calcineurin. Overexpression of DYRK1A relocalized Flag-NFATc1 into the cytoplasm, even in the presence of ionomycin owing to the opposing action of DYRK1A on NFATc1 phosphorylation, which is consistent with its negative regulatory role in the calcineurin-NFAT pathway (Fig. 5A, DYRK1A+IM).
(§1) Fig. 5. […] Firefly luciferase activities were measured using One-Glo reagents. Luciferase activity in the sample with reporter plasmid alone was set to 1, and the relative luciferase activities were calculated. Means±s.d. were determined from two independent experiments.
293T cells were seeded into 8-well chambered coverslips (Ibidi) and transfected with a plasmid expressing Flag-NFATc1. […] Cells were fixed with 4% paraformaldehyde in PBS for 10 min at room temperature, followed by permeabilization with 0.1% Triton X-100, and then subjected to immunofluorescence staining with anti-Flag (1:500) antibody for 2 h. Cells were then washed with cold PBS three times for 3 min each, incubated with Alexa-Fluor-488-conjugated anti-rabbit IgG (1:800) (Invitrogen) at room temperature for 1 h and then examined under a fluorescence microscope.

[2] = test system: calcineurin-NFAT signaling; assay: NFAT-RE promoter luciferase reporter assay (NRE-Luc) in 293T cells; assay type: cell-based; conditions: IM and PMA (10 nM), 1, 3 and 10 μM
Protocol: as §1
Treatment with IM and phorbol 12-myristate 13-acetate (PMA) induced a dramatic increase in luciferase activity (∼20 fold) as a result of the nuclear translocation of NFATc1 and the subsequent transcriptional activation (Fig. 5B). In this situation, the overexpression of DYRK1A suppressed the stimulatory effect of IM and PMA by 75%, resulting in a 4.5-fold increase in luciferase activity compared with that of the control (Fig. 5B).
The firefly luciferase reporter assay was performed using a One-Glo Assay System (Promega) according to the manufacturer's instructions. The transcriptional activity of NFATc1 in 293T cells was measured with a reporter vector (pGL4.30 luc2P/NFAT-RE/Hygro) (Promega) that expresses the firefly luciferase gene under the control of an NFAT-RE promoter. 293T cells were transfected with the DYRK1A-expressing plasmid and reporter plasmid. On the next day, cells were treated with IM (2.5 μM) and phorbol-12-myristate-13-acetate (10 nM) along with the indicated amounts of inhibitors. Cells were further incubated for 8 h and then cell lysates were harvested to measure luciferase activity.

[3] = test system: mnb-overexpressing Drosophila; assay: Wing vein (LV5) defect rescue in mnb-overexpressing flies (MS1096-gal4); assay type: in vivo, Drosophila melanogaster; conditions: larvae fed for 2 weeks
[4] = test system: mnb-overexpressing Drosophila; assay: Eye phenotype in flies overexpressing human Tau with or without mnb (GMR-Gal4); assay type: in vivo, Drosophila melanogaster; conditions: feeding with 100 nM, GMR>Tau and GMR>mnb+Tau
Excerpt: (§2) The expression of human Tau in Drosophila retinal tissue (GMR>Tau) produced a small rough eye phenotype (GMR>Tau in Fig. 6A and B), as described previously ([Jackson et al., 2002]). […] Pan-neuronal mnb overexpression (elav::synGFP>mnb) caused severe neurogenic defects in both the central and peripheral nervous system during embryogenesis [elav::synGFP>mnb (DMSO) in Fig. 6C]. […] Moreover, the viability of adult flies with the neuronal overexpression of mnb was examined. Pan-neuronal overexpression of mnb caused high rates of mortality in adult flies (∼70%, Fig. 6D).
Fig. 6. CX-4945 rescues neurological and phenotypic defects in an mnb-overexpressing Drosophila model. […] (B) The retinal surface areas were measured on multiple samples (n>10) from each genotype, and average eye sizes were presented as normalized percentages of the DMSO-treated GMR-Gal4 control. […]
Drosophila melanogaster were cultured at 25°C on standard cornmeal medium. […] For defining optimal concentration of chemical inhibitors, 50 embryos of each genotype were raised on drug-containing food (0, 1 nM, 10 nM, 100 nM, 1 µM, 10 µM and 25 µM in 0.05% DMSO) and allowed to develop to adulthood (viability assay and wing vein quantification assay). […] Fly eye sizes were measured on multiple samples (n>10) from each genotype using the National Institutes of Health ImageJ software. […]

[5] = test system: mnb-overexpressing Drosophila; assay: Adult lethality with pan-neuronal mnb overexpression; assay type: in vivo, Drosophila melanogaster; conditions: parent flies fed 100 nM, n=100 per group
Excerpt: as §2
Fig. 6. CX-4945 rescues neurological and phenotypic defects in an mnb-overexpressing Drosophila model. (A) The eyes of adult flies overexpressing mnb and/or human Tau under the control of the eye-specific GMR-Gal4 driver, and of control flies bearing only GMR-Gal4. Overexpression of mnb aggravated the eye abnormality induced by Tau overexpression. […] White dashed lines outline the eye contour. (B) The retinal surface areas were measured on multiple samples (n>10) from each genotype, and average eye sizes were presented as normalized percentages of the DMSO-treated GMR-Gal4 control. (C) The brain cortex, primary neuronal cell clusters and axon bundle, as visualized with GFP (green) using UAS-Synaptobrevin-GFP driven by elav-Gal4 at the late embryonic stage 18. […]

[6] = set-up: method as in Senhwa Biosciences (2014); conditions: phase I clinical trials as cancer therapeutic; ref Senhwa Biosciences (2014); cited from earlier work

O=C(O)c1ccc2c(c1)nc(Nc1cccc(Cl)c1)c1ccncc12 [CX-4945]
nuclear translocation of Flag-NFATc1 [1]: effectively induced the nuclear translocation | NFATc1-dependent transcriptional activation (NRE-Luc) suppressed by DYRK1A overexpression [2]: reversed the effect of DYRK1A overexpression in a dose-dependent manner | concentration giving apparent rescue of wing (LV5) defect [3]: 10 to 100 nM | eye defects induced by overexpression of Tau alone or with mnb [4]: significantly mitigated | reduction of mortality of the progeny [5]: more than 70% | clinical safety [6]: safety has been already proven

From article PMC5007978, “A chemical with proven clinical safety rescues Down-syndrome-related phenotypes in through DYRK1A inhibition” (Disease Models & Mechanisms, 2016)
